The text below walks through data of publication PMC8120209, “Longitudinal evaluation of a novel BChE PET tracer as an early in vivo biomarker in the brain of a mouse model for Alzheimer disease” (Theranostics, 2021).

Broadly, the inhibition is the relative decrease from the control value, in per cent. As usually defined, the Ki is a dissociation constant, usually derived from enzyme kinetics or from competition with a known ligand.

Assay [1] concerns the target T1, adrenergic receptor α1A (Homo sapiens, UniProt P35348).
T1 construct: gene ADRA1A
T1 sequence (P35348 1-466): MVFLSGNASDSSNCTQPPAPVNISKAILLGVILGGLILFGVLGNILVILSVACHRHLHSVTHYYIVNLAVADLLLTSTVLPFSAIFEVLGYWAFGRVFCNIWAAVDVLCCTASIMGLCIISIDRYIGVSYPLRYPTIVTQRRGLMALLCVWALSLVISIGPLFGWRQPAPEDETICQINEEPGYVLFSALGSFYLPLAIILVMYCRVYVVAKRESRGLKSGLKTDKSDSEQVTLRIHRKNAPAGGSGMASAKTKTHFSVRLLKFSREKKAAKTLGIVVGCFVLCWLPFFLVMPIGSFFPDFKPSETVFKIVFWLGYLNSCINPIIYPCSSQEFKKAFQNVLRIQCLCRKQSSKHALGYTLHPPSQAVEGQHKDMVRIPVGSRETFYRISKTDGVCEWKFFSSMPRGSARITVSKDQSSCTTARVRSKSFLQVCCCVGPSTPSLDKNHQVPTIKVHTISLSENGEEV
The experiment in a line: SafetyScreen44 panel (Eurofins), single concentration […]. As to conditions: read-out: % inhibition at 10 μM.

The target of assay [2] is AR(h) (agonist radioligand) (Homo sapiens, UniProt P10275). Kind of assay: biochemical. As to conditions: read-out: % Inhibition of Control Specific Binding Mean.
Assay [3] deals with T2, MAO-A (antagonist radioligand) (Rattus norvegicus, UniProt P21396).
T2 construct: gene Maoa
The experiment in a line: biochemical. The conditions noted are these: read-out: % Inhibition of Control Specific Binding Mean.

Assay [4] has as its target T3, N neuronal α7 (h) (Homo sapiens, UniProt P36544).
T3 construct: gene CHRNA7
The experiment in a line: biochemical. Details: Eurofins SafetyScreen44 radioligand displacement, inhibition of control specific binding. The conditions noted are these: read-out: % Inhibition of Control Specific Binding, Mean.

For assay [5], the target named is T4, CCK1 (CCKA) (h) (Homo sapiens, UniProt P32238).
T4 construct: gene CCKAR
The experiment in a line: biochemical. Details: Eurofins SafetyScreen44 radioligand displacement, inhibition of control specific binding. As to conditions: read-out: % Inhibition of Control Specific Binding, Mean.

In assay [6] the target is T5, D1(h) (Homo sapiens, UniProt P21728).
T5 construct: gene DRD1
Kind of assay: biochemical. Details: Eurofins SafetyScreen44 radioligand displacement, inhibition of control specific binding. As to conditions: read-out: % Inhibition of Control Specific Binding, Mean.

The target of assay [7] is T6, sigma 1 (h) (Homo sapiens, UniProt Q99720).
T6 construct: gene SIGMAR1
The experiment in a line: biochemical. Details: Eurofins SafetyScreen44 radioligand displacement, inhibition of control specific binding. The conditions noted are these: read-out: % Inhibition of Control Specific Binding, Mean.

Assay [8] has as its target T7, 5-HT2A(h) (Homo sapiens, UniProt P28223).
T7 construct: gene HTR2A
The experiment in a line: biochemical. As to conditions: read-out: % Inhibition of Control Specific Binding, Mean. Details: Eurofins SafetyScreen44 radioligand displacement, inhibition of control specific binding.

Assay [9] has as its target T8, D5(h) (Homo sapiens, UniProt P21918).
T8 construct: gene DRD5
The experiment in a line: biochemical. Details: Eurofins SafetyScreen44 radioligand displacement, inhibition of control specific binding. As to conditions: read-out: % Inhibition of Control Specific Binding, Mean.

For assay [10], the target named is T9, H2(h) (Homo sapiens, UniProt P25021).
T9 construct: gene HRH2
The experiment in a line: biochemical. Details: Eurofins SafetyScreen44 radioligand displacement, inhibition of control specific binding. The conditions noted are these: read-out: % Inhibition of Control Specific Binding, Mean.

In assay [11] the target is T10, adrenergic receptor α2A (Homo sapiens, UniProt P08913).
T10 construct: gene ADRA2A
The experiment in a line: SafetyScreen44 panel (Eurofins), single concentration […]. As to conditions: read-out: % inhibition at 10 μM.

The target in assay [12] is T11, 5-HT3(h) (Homo sapiens, UniProt P46098).
T11 construct: gene HTR3A
Kind of assay: biochemical. Details: Eurofins SafetyScreen44 radioligand displacement, inhibition of control specific binding. The conditions noted are these: read-out: % Inhibition of Control Specific Binding, Mean.

Assay [13] deals with T12, V1a(h) (Homo sapiens, UniProt P37288).
T12 construct: gene AVPR1A
Kind of assay: biochemical. Details: Eurofins SafetyScreen44 radioligand displacement, inhibition of control specific binding. As to conditions: read-out: % Inhibition of Control Specific Binding, Mean.

The target of assay [14] is T13, CB2(h) (Homo sapiens, UniProt P34972).
T13 construct: gene CNR2
The experiment in a line: biochemical. Details: Eurofins SafetyScreen44 radioligand displacement, inhibition of control specific binding. As to conditions: read-out: % Inhibition of Control Specific Binding, Mean.

Assay [15] has as its target T14, ETA(h) (Homo sapiens, UniProt P25101).
T14 construct: gene EDNRA
The experiment in a line: biochemical. Details: Eurofins SafetyScreen44 radioligand displacement, inhibition of control specific binding. As to conditions: read-out: % Inhibition of Control Specific Binding, Mean.

Assay [16] addresses T15, D2S(h) (Homo sapiens, UniProt P14416).
T15 construct: gene DRD2; short isoform D2S
Kind of assay: biochemical. The conditions noted are these: read-out: % Inhibition of Control Specific Binding, Mean. Details: Eurofins SafetyScreen44 radioligand displacement, inhibition of control specific binding.

The target in assay [17] is T16, 5-HT1A(h) (Homo sapiens, UniProt P08908).
T16 construct: gene HTR1A
The experiment in a line: biochemical. Details: Eurofins SafetyScreen44 radioligand displacement, inhibition of control specific binding. As to conditions: read-out: % Inhibition of Control Specific Binding, Mean.

Assay [18] addresses T17, CB1(h) (Homo sapiens, UniProt P21554).
T17 construct: gene CNR1
Kind of assay: biochemical. Details: Eurofins SafetyScreen44 radioligand displacement, inhibition of control specific binding. The conditions noted are these: read-out: % Inhibition of Control Specific Binding, Mean.

Assay [19] deals with T18, µ-opioid receptor (Rattus norvegicus, UniProt P33535).
T18 construct: gene Oprm1; rat cortex homogenates
The experiment in a line: [3H]DAMGO radioligand displacement in rat cortex homogenates. It is filed as binding. For orientation: Displacement assays read how much labelled ligand stays bound in the presence of the test substance.

Assay [20] concerns the target Lck kinase (h) (Homo sapiens, UniProt P06239). Kind of assay: biochemical. Details: Eurofins SafetyScreen44 enzyme assays, inhibition of control specific activity. The conditions noted are these: read-out: % Inhibition of Control Values, Mean.
In assay [21] the target is T19, M3(h) (Homo sapiens, UniProt P20309).
T19 construct: gene CHRM3
Kind of assay: biochemical. Details: Eurofins SafetyScreen44 radioligand displacement, inhibition of control specific binding. As to conditions: read-out: % Inhibition of Control Specific Binding, Mean.

Assay [22] has as its target T20, GR (h) (Homo sapiens, UniProt P04150).
T20 construct: gene NR3C1
Kind of assay: biochemical. Details: Eurofins SafetyScreen44 radioligand displacement, inhibition of control specific binding. The conditions noted are these: read-out: % Inhibition of Control Specific Binding, Mean.

In assay [23] the target is T21, M1(h) (Homo sapiens, UniProt P11229).
T21 construct: gene CHRM1
The experiment in a line: biochemical. Details: Eurofins SafetyScreen44 radioligand displacement, inhibition of control specific binding. As to conditions: read-out: % Inhibition of Control Specific Binding, Mean.

SMILES strings stand for the structures.

T16 sequence (P08908 whole entry): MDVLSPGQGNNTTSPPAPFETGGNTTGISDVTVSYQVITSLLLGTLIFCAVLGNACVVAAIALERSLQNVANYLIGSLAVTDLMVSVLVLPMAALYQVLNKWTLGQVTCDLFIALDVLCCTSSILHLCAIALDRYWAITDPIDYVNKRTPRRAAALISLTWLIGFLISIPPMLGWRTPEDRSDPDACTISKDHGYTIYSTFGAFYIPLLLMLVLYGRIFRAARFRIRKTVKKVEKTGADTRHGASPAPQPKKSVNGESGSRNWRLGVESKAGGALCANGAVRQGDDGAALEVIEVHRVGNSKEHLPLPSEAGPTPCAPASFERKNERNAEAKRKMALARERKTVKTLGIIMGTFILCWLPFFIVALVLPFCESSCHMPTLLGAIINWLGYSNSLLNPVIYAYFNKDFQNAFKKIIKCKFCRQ
T11 sequence (P46098 whole entry): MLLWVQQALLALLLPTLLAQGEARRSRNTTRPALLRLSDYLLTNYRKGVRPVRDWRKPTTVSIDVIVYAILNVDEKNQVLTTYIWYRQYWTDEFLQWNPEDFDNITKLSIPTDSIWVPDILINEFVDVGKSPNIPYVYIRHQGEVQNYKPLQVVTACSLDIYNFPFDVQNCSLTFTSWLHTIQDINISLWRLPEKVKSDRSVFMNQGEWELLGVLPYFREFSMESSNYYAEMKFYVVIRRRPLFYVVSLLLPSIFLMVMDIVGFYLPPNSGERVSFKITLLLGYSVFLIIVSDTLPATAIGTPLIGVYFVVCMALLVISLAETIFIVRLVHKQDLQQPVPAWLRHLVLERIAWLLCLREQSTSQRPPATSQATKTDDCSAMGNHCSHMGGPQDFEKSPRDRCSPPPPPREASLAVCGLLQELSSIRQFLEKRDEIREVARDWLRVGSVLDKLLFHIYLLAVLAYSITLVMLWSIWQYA
T7 sequence (P28223 whole entry): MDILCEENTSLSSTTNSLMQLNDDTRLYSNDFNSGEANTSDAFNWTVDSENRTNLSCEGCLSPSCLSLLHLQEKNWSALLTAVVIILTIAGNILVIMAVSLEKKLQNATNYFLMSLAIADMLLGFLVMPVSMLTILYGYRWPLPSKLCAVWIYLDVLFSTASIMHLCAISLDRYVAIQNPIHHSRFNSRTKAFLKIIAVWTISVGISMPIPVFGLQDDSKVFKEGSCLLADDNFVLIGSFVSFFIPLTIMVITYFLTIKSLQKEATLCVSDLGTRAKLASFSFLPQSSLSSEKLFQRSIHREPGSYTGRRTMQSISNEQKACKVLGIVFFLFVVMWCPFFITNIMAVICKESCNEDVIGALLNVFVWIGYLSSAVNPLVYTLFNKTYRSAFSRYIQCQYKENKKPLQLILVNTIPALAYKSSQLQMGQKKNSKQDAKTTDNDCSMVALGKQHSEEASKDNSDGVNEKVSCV
T13 sequence (P34972 whole entry): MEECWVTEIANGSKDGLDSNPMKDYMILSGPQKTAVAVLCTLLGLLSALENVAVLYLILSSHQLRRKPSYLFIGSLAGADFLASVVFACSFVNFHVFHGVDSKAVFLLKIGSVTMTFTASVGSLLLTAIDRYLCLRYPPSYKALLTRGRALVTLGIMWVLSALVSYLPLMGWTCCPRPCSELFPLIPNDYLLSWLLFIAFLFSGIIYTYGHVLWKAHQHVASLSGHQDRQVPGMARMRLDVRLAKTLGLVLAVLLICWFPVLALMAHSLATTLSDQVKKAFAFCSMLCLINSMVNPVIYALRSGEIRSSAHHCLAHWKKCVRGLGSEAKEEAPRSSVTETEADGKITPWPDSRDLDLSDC
T15 sequence (P14416 whole entry, canonical isoform): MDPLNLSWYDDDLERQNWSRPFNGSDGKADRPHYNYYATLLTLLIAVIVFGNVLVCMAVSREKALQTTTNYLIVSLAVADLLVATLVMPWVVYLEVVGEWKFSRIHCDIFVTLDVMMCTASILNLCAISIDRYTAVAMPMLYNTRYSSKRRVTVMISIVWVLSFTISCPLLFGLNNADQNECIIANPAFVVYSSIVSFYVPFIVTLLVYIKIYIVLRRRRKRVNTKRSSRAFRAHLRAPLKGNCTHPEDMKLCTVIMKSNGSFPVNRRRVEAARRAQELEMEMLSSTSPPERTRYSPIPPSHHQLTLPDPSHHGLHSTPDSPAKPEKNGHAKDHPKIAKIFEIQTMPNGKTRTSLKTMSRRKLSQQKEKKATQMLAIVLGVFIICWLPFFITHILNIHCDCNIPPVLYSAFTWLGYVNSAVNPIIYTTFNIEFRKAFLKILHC
T3 sequence (P36544 whole entry): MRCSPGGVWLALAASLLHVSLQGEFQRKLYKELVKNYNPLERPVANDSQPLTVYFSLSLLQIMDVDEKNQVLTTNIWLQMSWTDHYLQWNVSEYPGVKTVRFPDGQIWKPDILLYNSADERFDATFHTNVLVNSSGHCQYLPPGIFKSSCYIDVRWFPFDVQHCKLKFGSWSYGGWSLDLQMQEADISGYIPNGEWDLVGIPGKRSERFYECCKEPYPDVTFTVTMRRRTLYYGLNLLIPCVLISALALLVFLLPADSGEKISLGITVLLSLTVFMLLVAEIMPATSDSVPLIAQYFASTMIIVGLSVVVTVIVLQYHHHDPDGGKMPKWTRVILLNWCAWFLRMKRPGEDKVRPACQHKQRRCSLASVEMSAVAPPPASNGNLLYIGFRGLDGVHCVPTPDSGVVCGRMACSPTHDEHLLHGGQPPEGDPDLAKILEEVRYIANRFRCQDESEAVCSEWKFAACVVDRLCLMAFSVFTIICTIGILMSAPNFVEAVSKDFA
T12 sequence (P37288 whole entry): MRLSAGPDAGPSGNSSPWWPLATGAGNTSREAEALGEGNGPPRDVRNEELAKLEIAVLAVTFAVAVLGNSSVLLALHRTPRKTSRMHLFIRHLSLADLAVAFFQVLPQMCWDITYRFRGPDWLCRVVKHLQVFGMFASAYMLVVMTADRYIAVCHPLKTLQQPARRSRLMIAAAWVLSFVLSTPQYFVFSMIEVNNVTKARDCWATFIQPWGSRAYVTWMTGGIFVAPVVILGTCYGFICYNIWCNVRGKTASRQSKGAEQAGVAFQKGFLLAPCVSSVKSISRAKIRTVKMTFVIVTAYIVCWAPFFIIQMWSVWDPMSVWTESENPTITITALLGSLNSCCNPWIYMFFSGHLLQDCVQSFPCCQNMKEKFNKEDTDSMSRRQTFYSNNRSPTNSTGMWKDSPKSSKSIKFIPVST
T21 sequence (P11229 whole entry): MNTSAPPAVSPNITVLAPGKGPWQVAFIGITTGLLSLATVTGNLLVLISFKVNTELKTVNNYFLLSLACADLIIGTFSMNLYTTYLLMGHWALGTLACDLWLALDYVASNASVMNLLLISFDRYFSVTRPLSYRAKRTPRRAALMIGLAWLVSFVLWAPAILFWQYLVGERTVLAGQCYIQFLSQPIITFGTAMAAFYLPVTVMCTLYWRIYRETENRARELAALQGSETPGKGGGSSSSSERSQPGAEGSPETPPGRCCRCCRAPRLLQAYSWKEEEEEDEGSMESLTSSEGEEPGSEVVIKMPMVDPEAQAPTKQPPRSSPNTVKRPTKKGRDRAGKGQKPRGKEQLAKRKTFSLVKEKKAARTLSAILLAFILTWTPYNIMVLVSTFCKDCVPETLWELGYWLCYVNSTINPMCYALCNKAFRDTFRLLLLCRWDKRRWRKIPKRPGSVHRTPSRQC
Sequence of Lck kinase (h) (P06239 whole entry): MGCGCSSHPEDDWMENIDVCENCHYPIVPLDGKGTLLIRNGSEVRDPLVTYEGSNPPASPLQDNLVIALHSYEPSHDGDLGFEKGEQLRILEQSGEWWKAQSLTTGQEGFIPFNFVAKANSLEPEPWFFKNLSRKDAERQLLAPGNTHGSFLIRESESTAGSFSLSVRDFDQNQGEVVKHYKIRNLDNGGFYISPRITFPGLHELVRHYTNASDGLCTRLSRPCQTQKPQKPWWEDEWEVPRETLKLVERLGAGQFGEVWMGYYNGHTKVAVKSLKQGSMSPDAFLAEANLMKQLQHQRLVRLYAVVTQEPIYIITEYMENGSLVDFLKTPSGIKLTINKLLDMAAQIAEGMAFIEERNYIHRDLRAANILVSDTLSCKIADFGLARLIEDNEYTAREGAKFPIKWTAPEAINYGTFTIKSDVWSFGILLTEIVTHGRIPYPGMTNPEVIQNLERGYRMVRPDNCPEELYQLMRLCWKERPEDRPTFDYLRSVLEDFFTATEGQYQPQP
T9 sequence (P25021 whole entry): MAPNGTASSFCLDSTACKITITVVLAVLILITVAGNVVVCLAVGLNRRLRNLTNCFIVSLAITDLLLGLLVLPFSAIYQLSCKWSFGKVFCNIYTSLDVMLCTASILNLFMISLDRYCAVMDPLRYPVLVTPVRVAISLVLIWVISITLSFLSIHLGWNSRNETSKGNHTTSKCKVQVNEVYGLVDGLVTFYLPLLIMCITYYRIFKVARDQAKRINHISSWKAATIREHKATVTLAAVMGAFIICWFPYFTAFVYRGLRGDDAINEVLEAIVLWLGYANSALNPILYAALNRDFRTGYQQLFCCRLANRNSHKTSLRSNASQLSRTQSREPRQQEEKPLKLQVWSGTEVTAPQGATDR
T17 sequence (P21554 whole entry): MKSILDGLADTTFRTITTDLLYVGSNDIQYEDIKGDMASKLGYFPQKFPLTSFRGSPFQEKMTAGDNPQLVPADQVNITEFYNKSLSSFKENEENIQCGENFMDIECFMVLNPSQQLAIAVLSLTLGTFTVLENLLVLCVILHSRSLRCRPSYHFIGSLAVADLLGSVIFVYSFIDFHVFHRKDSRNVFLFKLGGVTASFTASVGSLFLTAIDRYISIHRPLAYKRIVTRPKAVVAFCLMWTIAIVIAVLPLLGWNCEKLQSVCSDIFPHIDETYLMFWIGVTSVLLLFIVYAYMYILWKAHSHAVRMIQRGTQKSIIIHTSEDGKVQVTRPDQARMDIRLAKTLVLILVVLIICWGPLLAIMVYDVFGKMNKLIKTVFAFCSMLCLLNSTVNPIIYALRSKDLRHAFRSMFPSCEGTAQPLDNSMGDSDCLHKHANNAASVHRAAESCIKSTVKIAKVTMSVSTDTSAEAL

Turning to `COCCN(CC1CCCN(Cc2ccccc2)C1)S(=O)(=O)c1ccc2ccccc2c1` (racemic) [compound 4, (±)N-((1-benzylpiperidin-3-yl)methyl)-N-(2-methoxyethyl)naphthalene-2-sulfonamide], the inhibition at 10 µM in [1] was 71.7%; in [2], -6.6%; in [3], -0.2%; in assay [4], 18.2%; in assay [5] it was 21.9%; in assay [6], 32.4%. The inhibition at 10 µM in [7] is 99.9%; in assay [8] it was 93%; in [9] it was 24.2%; in assay [10], 27%; in [11], 60.9%; in assay [12] it was -2.7%. Besides, the inhibition at 10 µM was 33.8% in [13]; 17.6% in [14]; -3.9% in [15]; 55.6% in assay [16]; 96.2% in assay [17]; -44.4% in assay [18]. The inhibition at 10 µM is 52.7% in assay [20], 35.2% in assay [21], 4.7% in assay [22] and 53.1% in [23]. Also, the affinity in [19], expressed as Ki, was 1800 nM.
